Experimental data: ChEMBL document CHEMBL1132208, “Molecular hashkeys: a novel method for molecular characterization and its application for predicting important pharmaceutical properties of molecules” (J Med Chem, 1999)

Each compound was assayed on Homo sapiens (assay: Percent of the drug absorbed after administration to humans was determined). Settings: in vivo.
Format: ADME, organism-based

| Compound | Absorption |
| --- | --- |
| C=CCc1ccccc1OCC(O)CNC(C)C (stereo not drawn) [ALPRENOLOL] | 96% |
| Cc1cc(=O)n(-c2ccccc2)n1C [ANTIPYRINE] | 97% |
| O=C(O)P(=O)(O)O [FOSCARNET] | 17% |
| OC[C@H]1O[C@@H](O[C@@H]2[C@@H](CO)O[C@](O)(CO)[C@H]2O)[C@H](O)[C@@H](O)[C@H]1O [LACTULOSE] | 0.6% |
| OC[C@@H](O)[C@@H](O)[C@H](O)[C@H](O)CO [MANNITOL] | 26% |
| Cc1ccccc1N1C(=O)c2cc(S(N)(=O)=O)c(Cl)cc2NC1C (stereo not drawn) [METOLAZONE] | 64% |
| O=C(O)c1cc(/N=N/c2ccc(O)c(C(=O)O)c2)ccc1O [OLSALAZINE] | 2.3% |
| C=CCOc1ccccc1OCC(O)CNC(C)C (stereo not drawn) [OXPRENOLOL] | 97% |
| CC(C)NCC(O)COc1cccc2[nH]ccc12 (stereo not drawn) [PINDOLOL] | 92% |
| OC[C@H]1O[C@H](OC[C@H]2O[C@H](O[C@]3(CO)O[C@H](CO)[C@@H](O)[C@@H]3O)[C@H](O)[C@@H](O)[C@@H]2O)[C@H](O)[C@@H](O)[C@H]1O [RAFFINOSE] | 0.3% |
| O=C(O)c1cc(/N=N/c2ccc(S(=O)(=O)Nc3ccccn3)cc2)ccc1O [SULFASALAZINE] | 12% |
| CCN1CCCC1CNC(=O)c1cc(S(N)(=O)=O)ccc1OC (stereo not drawn) [SULPIRIDE] | 36% |
| NC[C@H]1CC[C@H](C(=O)O)CC1 [TRANEXAMIC ACID] | 55% |
